# Reference: patent publication US8628961B2, “Small molecule antagonists of phosphatidylinositol-3,4,5-triphosphate (PIP3) and uses thereof” (Tufts University, priority 2010, dated 2014)
# Assays:
# Akt PH domain [1] = biological target: T1, Akt PH domain (Homo sapiens (Human), UniProt P31749); assay: Fluorescence polarization (FP) PIP3/Akt PH domain binding assay; conditions: for IC50: 15 nM TMR-conjugated PIP3, PITs 6.25-200 μM, 30 min; for activity of PIT-1 analogs in vitro: negative controls
# Description: In order to identify compounds that disrupt the interaction between PIP3 and PH domains, a high-throughput fluorescence polarization (FP)-binding assay was developed using recombinant 1-123 amino acid N-terminal fragment of human Akt1 (also referred to herein simply as Akt), encompassing the PH domain (PH123 protein), and fluorescent […] PIP3 molecule. The amino acid sequence of human Akt1 is publicly available as, for example, GenBank Accession No. NP_001014432.1 (SEQ ID NO:1), and the corresponding DNA sequence is publicly available as, for example, GenBank Accession No. NM_001014432. Briefly, 5 μM recombinant GST fusion proteins containing 1-123 a.a. N-terminal fragment of human Akt1 (PH 123) or 100 nM 441-551 a.a. region of human PDK1 were incubated with 15 nM TMR-labeled PIP3, PIP2, or PIP5 in buffer containing 50 mM Tris-HCl (pH 7.5), 150 mM NaCl, and 5 mM b-ME for 15 min at room temperature in the dark. FP values were determined using Wallac Victor 3 plate reader. For the primary screen, 50,000 diverse small molecules from Harvard Institute of Chemistry and Cell Biology were screened (iccb.med.harvard.edu). Incubations were carried out for 1 hr. For secondary assays, PIT compounds were added at various concentrations (6.25, 12.5, 25, 50, 100, 150 and 200 μM), followed by a 30 min incubation. The inhibition rates were calculated as inhibition rate=[1−(compound-treated group/control group)]×100%, and IC50 value was determined using Origin6 software (MicroCal, LLC, Northampton, Mass.).
# Target sequence in this assay (P31749 1-123): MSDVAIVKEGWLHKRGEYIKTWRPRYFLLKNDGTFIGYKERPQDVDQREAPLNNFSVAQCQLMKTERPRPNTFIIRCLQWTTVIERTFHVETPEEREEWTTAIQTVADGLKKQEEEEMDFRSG
# GRP1 PH domain = GRP1 PH domain (Homo sapiens, UniProt O43739); assay: FP PIP3/GRP1 PH domain binding assay; conditions: 15 nM TMR-conjugated PIP3, 100 nM GRP1 PH domain, 30 min
# Akt PH domain [2] = biological target: T1, Akt PH domain; assay: PH domain translocation assay (GFP fusion, plasma membrane); format: cell-based; conditions: PDGF stimulation
# Method: (§1) Cells were transfected with the corresponding GFP-fusion vectors, serum starved overnight, and incubated with 100 μM PITs or PIT-1 is for 2 hr, followed by stimulation with 100 ng/ml PDGF or 250 ng/ml PMA for 5 min. The translocation was analyzed using fluorescent microscope and was quantitated by counting the number of cells with translocated PH domains in five random fields.
# To begin characterizing cellular activity of PITs, a PH domain translocation assay was performed, measuring PIP3-induced association of GFP-fused PH domains with the plasma membrane. […] Varnai P et al. (1999) J Biol Chem 274:10983-9. Several PH-domain-containing proteins, which are known to bind PIP3 specifically and efficiently, were examined. […] Oikawa T et al. (2004) Nat Cell Biol 6:420-6.
# Target sequence in this assay (P31749 5-108): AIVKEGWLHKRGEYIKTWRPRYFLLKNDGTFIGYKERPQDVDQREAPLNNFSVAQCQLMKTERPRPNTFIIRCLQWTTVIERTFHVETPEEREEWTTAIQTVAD
# SUM159 cells = assay: Cell polarization in wounded monolayers after PDGF; format: cell-based, human; conditions: wound healing model, 100 μM
# Method: In order to measure cell polarization, wounds were generated in SUM159 cell monolayers, followed by serum starvation and treatment with 100 μM PIT-1, PIT-2, PIT-1i-1, or PIT-1i-2 for 2 hr. Cells were stimulated for 15 min with 100 ng/ml PDGF, fixed and stained with TRITC-phalloidin for F-actin (red), acetylated tubulin antibody (green) for microtubule organization center (MTOC), and Hoechst for nuclei (blue). Cell polarization was evaluated by analysis of the relative location of the MTOC and nucleus. […] The number of polarized cells was counted in five random fields under fluorescent microscope.
# [3] = tested on: SUM159 cells transfected with VAV2 or WAVE2; assay: Wound migration of VAV- or WAVE-overexpressing cells; format: cell-based, human; conditions: PDGF, 8 hr
# Method: SUM159 cells were transfected with VAV2 or WAVE2. Scratch wound was generated in cell monolayer, followed by treatment with PIT-1 (100 μM) in the presence of PDGF (100 ng/ml) stimulation for 8 hr. The inhibitory effect of PITs on VAV- or WAVE-induced cell migration was calculated according to the width of wound. The width of wounded cell monolayers was measured in five random fields.
# PI3K-PDK1-Akt pathway = assay: PIP3-regulated phosphorylation events in U87MG cells; format: cell-based, human
# Method: The effect of PIT-1 on PIP3-mediated signaling was examined in U87MG glioblastoma cells, which show elevated basal levels of PIP3 due to the loss of PTEN. Pore N et al. (2003) Cancer Res 63:236-41.
# [4] = tested on: multiple cancer cell lines; assay: Cancer cell viability, MTS or ATP assays; format: cell-based; conditions: dose- and time-dependent
# Method: Based on the critical role of PIP3-dependent […] signaling in the regulation of cell survival, the effect of PIT-1 on the cancer cell viability was tested. Cancer cells were seeded into 96-well plates (white plates for ATP assay; black plates for fluorescent assay; clear plates for MTS assay) at the density of 5-10×10^3 cells per well in 100 μl of the appropriate media. Compounds were added at a series of concentrations and incubated for different times. For the ATP assay, a luminescence-based commercial kit (CellTiter-Glo, Promega, Madison, Wis.) was used. Thirty microliters of cell lysis/ATP detection reagent was added to each well, mixed for 10 min at room temperature, and the luminescence was measured using a Wallac Victor 3 plate reader (Perkin-Elmer, Wellesley, Mass.). For the MTS assay, a CellTiter 96 AQueous Non-Radioactive Cell Proliferation Assay Kit (Promega, Madison, Wis., USA) was used. Twenty microliters of the combined MTS/PMS solution was added into each well, incubated for 4 hr at 37° C., and the absorbance at 490 nm was measured using a Wallac Victor 3 plate reader. For the Sytox cell death assay, measuring loss of plasma membrane integrity, cells were incubated with 1 μM Sytox Green reagent (Molecular Probes, Eugene, Oreg.) for 30 min at 37° C. and the fluorescence intensity was measured using Wallac Victor 3 plate reader with excitation at 485 nm and emission at 545 nm. Next, 5 μl of 20% (v/v) Triton X-100 solution was added to each well and incubated for 1 hr at 37° C., and the signal was measured again. The ratio of values (percentage of dead cells in each well) before and after Triton X-100 treatment was calculated and normalized to the relevant controls not subjected to the cytotoxic stimuli. IC50 values were determined using Origin6 software (MicroCal, LLC, Northampton, Mass.).
# Btk PH domain = Btk PH domain (Homo sapiens (Human), UniProt Q06187); assay: PH domain translocation assay (GFP fusion, plasma membrane); format: cell-based; conditions: PDGF stimulation
# Method: as §1
# To begin characterizing cellular activity of PITs, a PH domain translocation assay was performed, measuring PIP3-induced association of GFP-fused PH domains with the plasma membrane. This method provides useful means for monitoring status of the PH domain/PIP3 binding in the intact cells. Varnai P et al. (1999) J Biol Chem 274:10983-9. Several PH-domain-containing proteins, which are known to bind PIP3 specifically and efficiently, were examined. […] Oikawa T et al. (2004) Nat Cell Biol 6:420-6.
# Btk PH domain, sequence (Q06187 3-133): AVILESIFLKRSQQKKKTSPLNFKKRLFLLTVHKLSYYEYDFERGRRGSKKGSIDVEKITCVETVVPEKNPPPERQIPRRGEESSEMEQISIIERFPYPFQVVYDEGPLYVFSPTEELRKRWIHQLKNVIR
compound,measurement,setting,value
O=C(NC(=S)Nc1cc([N+](=O)[O-])cc(Cl)c1O)c1ccccc1 [PIT-1],IC50,Akt PH domain [1],31 ± 2.5 µM
same,IC50,GRP1 PH domain,40.3 ± 2.8 µM
same,plasma membrane translocation of Akt PH domain,Akt PH domain [2],significantly inhibited the translocation
same,cell polarization and lamellipodia formation induced by PDGF,SUM159 cells,effective at preventing cell polarization and lamellipodia formation
same,inhibition of migration in VAV- and WAVE-overexpressing cells compared to control cells,[3],larger degree of inhibition of cell migration
same,PI3K-PDK1-Akt signaling in U87MG cells,PI3K-PDK1-Akt pathway,suppressed activity of the PI3K-PDK1-Akt pathway
same,viability of multiple cancer cell lines,[4],reduced viability of multiple cancer cell lines
same,plasma membrane translocation of Btk PH domain,Btk PH domain,significantly inhibited the translocation
"O=C(NC(=O)c1ccccc1)Nc1cc([N+](=O)[O-])cc(Cl)c1O [PIT-1i-1, reference compound]",IC50,Akt PH domain [1],> 200 µM
same,activity of PIT-1 analogs in vitro,Akt PH domain [1],inactive analogs
same,IC50,GRP1 PH domain,> 200 µM
same,plasma membrane translocation of Akt PH domain,Akt PH domain [2],inactive
same,cell polarization and lamellipodia formation induced by PDGF,SUM159 cells,failed to prevent cell polarization
same,inhibition of migration in VAV- and WAVE-overexpressing cells compared to control cells,[3],lacked activity
same,PI3K-PDK1-Akt signaling in U87MG cells,PI3K-PDK1-Akt pathway,failed to inhibit PDK1/Akt signaling
same,viability of multiple cancer cell lines,[4],did not induce loss of viability
same,plasma membrane translocation of Btk PH domain,Btk PH domain,inactive
COc1c(Cl)cc([N+](=O)[O-])cc1NC(=S)NC(=O)c1ccccc1 [PIT-1i-2],IC50,Akt PH domain [1],> 200 µM
same,activity of PIT-1 analogs in vitro,Akt PH domain [1],inactive analogs
same,IC50,GRP1 PH domain,> 200 µM
same,plasma membrane translocation of Akt PH domain,Akt PH domain [2],inactive
same,cell polarization and lamellipodia formation induced by PDGF,SUM159 cells,failed to prevent cell polarization
same,inhibition of migration in VAV- and WAVE-overexpressing cells compared to control cells,[3],lacked activity
same,PI3K-PDK1-Akt signaling in U87MG cells,PI3K-PDK1-Akt pathway,failed to inhibit PDK1/Akt signaling
same,viability of multiple cancer cell lines,[4],did not induce loss of viability
same,plasma membrane translocation of Btk PH domain,Btk PH domain,inactive
